This note sets out measurements from ChEMBL document CHEMBL3124802, “Scrutinizing the scaffolds of marine biosynthetics from different source organisms: Gram-negative cultured bacterial products enter center stage” (J Nat Prod, 2014).

≈ marks a conversion by molar mass, not a printed value. Where a SMILES comes first, the peptide text is derived from it. Bridges are numbered along the chain shown (N, C = ends). The star is where a group is joined. X1 = O=C(/C=C/C=C/C=C/C=C/c1ccc(O)c(Br)c1)*

Data set [1] can be described thus: Antioxidant activity assessed as singlet oxygen quenching activity. The data set is classed as functional.
The nature of data set [2]: Cytotoxicity against sea urchin eggs. The arrangement: species or system Egg. The note with it: strongylocentrotus intermedius, read-out: MIC.
The test system of data set [3] is Candida albicans. Kind of data set: Antimicrobial activity against Candida albicans. The data set is classed as functional.

As to `CC(/C=C/C=C(C)/C=C/C=C(\C)C(=O)O)=C\C=C\C=C(C)\C=C\C=C(C)\C=C\C=C(/C)C(=O)O[C@@H]1OC[C@@H](O)[C@H](O)[C@H]1OC(=O)CCCCCCCCCCC(C)C`, in data set [1], the IC50 is 5.1 µM.
Regarding `CC[C@@H](C)[C@@H]1NC(=O)[C@H](CC(N)=O)NC(=O)[C@H](CC(N)=O)NC(=O)[C@H](C(C)C)NC(=O)[C@@H](NC(=O)/C=C/C=C/C=C/C=C/c2ccc(O)c(Br)c2)[C@@H](C)OC1=O`, the MCC in data set [2] is 40 µg/mL.
On to `CC[C@@H](C)[C@@H]1NC(=O)[C@H](CC(N)=O)NC(=O)[C@H](CC(N)=O)NC(=O)[C@H](C(C)C)NC(=O)[C@@H](NC(=O)CCCCCCCCc2ccc(O)cc2)[C@@H](C)OC1=O`, for which, in data set [2], the MCC is 40 µg/mL.
Consider `CC[C@@H](C)[C@@H]1NC(=O)[C@H](CC(N)=O)NC(=O)[C@H](CC(N)=O)NC(=O)[C@H](C(C)C)NC(=O)[C@@H](NC(=O)CCCCCCCCc2ccc(O)c(Br)c2)[C@@H](C)OC1=O`, for which the MCC in data set [2] was found to be 40 µg/mL.
In the case of `CC[C@@H](C)[C@@H]1NC(=O)[C@H](CC(N)=O)NC(=O)[C@H](CC(N)=O)NC(=O)[C@H](C(C)C)NC(=O)[C@@H](NC(=O)/C=C/CCCCCCc2ccc(O)c(Br)c2)[C@@H](C)OC1=O`, in data set [2], the MCC is 40 µg/mL.
As to `CC(C)C[C@@H]1NC(=O)[C@H](CC(N)=O)NC(=O)[C@H](CC(N)=O)NC(=O)[C@H](C(C)C)NC(=O)[C@@H](NC(=O)/C=C/C=C/C=C/C=C/c2ccc(O)c(Br)c2)[C@@H](C)OC1=O` (X1-TVNNL; ester 1-C), the MCC in data set [2] worked out at 40 µg/mL.
`C/C1=C\[C@H](C)C[C@H](C)OC(=O)C[C@H](c2ccc(O)cc2)NC(=O)[C@@H](Cc2c(Br)[nH]c3ccccc23)N(C)C(=O)[C@H](C)NC(=O)[C@@H](C)C1` [JASPAMIDE] gave an MIC in data set [3] of 25 µg/mL (≈ 35.2 µM).

By IC50 is commonly meant the concentration at which inhibition is half-maximal. What is called MIC is the smallest concentration in the dilution series that meets the test's criterion for growth inhibition.
